Inhibition and Rating data for four compounds are collected here from patent publication EP0462585B1, “Herbicidal composition” (ISHIHARA SANGYO KAISHA, LTD., priority 1990, dated 1991).

SMILES strings stand for the structures. Counter-ions that a name gives are not always drawn. Like-named read-outs stand apart in the source and are kept apart here.

Format in all cases: in vivo
One assay relates to Solidago altissima. Nature of the assay: Test Example 1 foliage treatment test, fresh weight of foliage. The note with it: foliar, 600 h, read-out: Growth Inhibition Rate (%). The text has this: Upland soil was placed in 1/5000-are (are (a) = 100 m²) wagner pots and planted with hills of Solidago altissima collected in the fields, and the hills were thereafter grown in a greenhouse. When the plant height reached 20 to 30 cm, a predetermined amount of each herbicidal composition which had been diluted with 15 ℓ, per are, of water and further admixed with 0.05 % (v/v) of a spreader (Shin Rino®: manufactured by Nihon Nohyaku Co., Ltd.) was foliarly applied on the plants using a small spray gun. 25 days after the foliage treatment application, the fresh weight of foliage was measured. The growth inhibition rate (%), which is listed in Table 1, was calculated according to the following equation: Growth Inhibition Rate (%) = (1 -(Fresh Weight of Foliage in Treated Plot)/(Fresh Weight of Foliage in Untreated Plot)) x 100 [formula]

The subject of assay [1] is weeds such as Solidago altissima, Agropyron smithii and Digitaria sanguinalis. Nature of the assay: Test Example 3 field foliage treatment test, visual rating of herbicidal effect. The settings on record: visual observation 30 days after foliage treatment. The text has this:
In a field where weeds such as Solidago altissima, Agropyron smithii and Digitaria sanguinalis had been growing mixedly, foliage treatment application of a predetermined amount of each herbicidal composition which had been diluted with 15 ℓ, per are, of water and further admixed with 0.05 % (v/v) of a spreader (Shin Rino®) was done using a small spray gun when the average plant height of these weeds reached 20 to 40 cm. 30 days after the foliage treatment application, the herbicidal effect of the herbicidal composition was examined through visual observation according to the following evaluation criteria.

The next assay relates to Digitaria sanguinalis. Nature of the assay: Test Example 2 foliage treatment test, fresh weight of aerial part; Colby expected value. The settings on record: foliar, 480 h, read-out: Growth Inhibition Rate (%) Found. An excerpt: However, there may be a case that when two kinds of active ingredients are applied in combination, the resulting herbicidal activity is higher than one obtained by simply summing up the activity of each of the two active ingredients (i.e., an expected activity). In such a case, it is said that a synergistic action is found. The expected activity which is brought by a specific combination of two kinds of herbicides can be calculated by the following equation as described, for example, in S.R. Colby, Weeds, "Calculating Synergistic and Antagonistic Responses of Herbicide Combinations", Vol. 15, pp. 20-22 (1967). E = α + β -(α x β)/(100) [formula] In the above equation, α represents a growth inhibition rate (%) when treated with a (g/are) of herbicide A; β represents a growth inhibition rate (%) when treated with b (g/are) of herbicide B; and E represents an expected growth inhibition rate (%) when treated with a (g/are) of herbicide A and b (g/are) of herbicide B.
Upland soil was placed in 1/10000-are pots and sown with Digitaria sanguinalis. When the plants reached the four-leaf stage, a predetermined amount of each herbicidal composition which had been diluted with 15 ℓ, per are, of water and further admixed with 0.2 % (v/v) of a spreader (Shin Rino®) was foliarly applied on the plants using a small spray gun. 20 days after the foliage treatment application, the fresh weight of the aerial part of the plant was measured. The growth inhibition rate (%) calculated by the equation given in Test Example 1 (found value) and the growth inhibition rate (%) calculated by the above-cited Colby equation (calculated value) are listed in Table 2.

As a reminder, the inhibition is the change of the read-out against control, counted positive when it falls. Take `CP(=O)(O)CCC(N)C(=O)O` (racemic) [Ammonium salt of D,L-isomer of Compound B, D,L-homoalanin-4-yl(methyl)phosphinic acid]: in the assay with Solidago altissima, the inhibition at 250 g/ha is 55%, the inhibition at 500 g/ha is 72% and the inhibition at 1000 g/ha was found to be 84%. The Rating in assay [1] (5 g/a active ingredient) is given as 5 (50 to 59). For the same compound, the Rating in assay [1] (10 g/a active ingredient) is reported as 7 (70 to 79). Besides, in the assay on Digitaria sanguinalis, the inhibition at 30 g/ha was 0.9%, the inhibition at 50 g/ha stood at 12.8%, the inhibition at 100 g/ha amounted to 35.8% and the inhibition at 200 g/ha amounted to 52.3%. Besides, in the assay with Digitaria sanguinalis, the inhibition at 300 g/ha stood at 85%, the inhibition at 400 g/ha came out at 90% and the inhibition at 1000 g/ha turned out to be 100%.

As to `CP(=O)(O)CC[C@H](N)C(=O)O` [Ammonium salt of L-isomer of Compound B, L-homoalanin-4-yl(methyl)phosphinic acid], in the assay on Solidago altissima, the inhibition at 125 g/ha was 48%, the inhibition at 250 g/ha was found to be 68% and the inhibition at 500 g/ha was determined as 77%. Further, the Rating in assay [1] (5 g/a active ingredient) is reported as 5 (50 to 59). Moreover, in assay [1] (10 g/a active ingredient), the Rating is reported as 6 (60 to 69).

Consider `COc1cc(OC)nc(NC(=O)NS(=O)(=O)c2ncccc2C(F)(F)F)n1` [Compound A, 1-(4,6-dimethoxypyrimidin-2-yl)-3-(3-trifluoromethyl-2-pyridylsulfonyl)urea], for which, in the assay with Solidago altissima (0.25 g/a active ingredient, 25 days after foliage treatment), the inhibition at 25 g/ha was found to be 46%. Besides, the inhibition at 50 g/ha with Solidago altissima (0.5 g/a active ingredient, 25 days after foliage treatment) came out at 51%. The inhibition at 100 g/ha with Solidago altissima (1 g/a active ingredient, 25 days after foliage treatment) stood at 63%; in the assay on Digitaria sanguinalis (1 g/a active ingredient, 20 days after foliage treatment), 67.3%. In addition, the figures for the Rating in assay [1] (0.5 g/a active ingredient) and in assay [1] (1 g/a active ingredient) were 5 (50 to 59) and 6 (60 to 69), respectively. The inhibition at 5 g/ha in the assay on Digitaria sanguinalis (0.05 g/a active ingredient, 20 days after foliage treatment) is 0%. Besides, in the assay with Digitaria sanguinalis (0.1 g/a active ingredient, 20 days after foliage treatment), the inhibition at 10 g/ha was 3.5%. Also, the inhibition at 20 g/ha with Digitaria sanguinalis (0.2 g/a active ingredient, 20 days after foliage treatment) stood at 5.3%. Further, in the assay with Digitaria sanguinalis (0.4 g/a active ingredient, 20 days after foliage treatment), the inhibition at 40 g/ha came to 16.9%. Further, the inhibition at 60 g/ha with Digitaria sanguinalis (0.6 g/a active ingredient, 20 days after foliage treatment) worked out at 47.4%. For the same compound, the inhibition at 500 g/ha in the assay on Digitaria sanguinalis (5 g/a active ingredient, 20 days after foliage treatment) turned out to be 99.4%.

With `C[C@H](NC(=O)[C@H](C)NC(=O)C(N)CCP(C)(=O)O)C(=O)O` (stereo partly drawn) [Sodium salt of L-isomer of Compound C, L-2-amino-4-[(hydroxy)(methyl)phosphinoyl]butyryl-L-alanyl-L-alanine], the inhibition at 250 g/ha in the assay on Solidago altissima (2.5 g/a active ingredient, 25 days after foliage treatment) was 51%. Besides, the inhibition at 500 g/ha in the assay with Solidago altissima (5 g/a active ingredient, 25 days after foliage treatment) worked out at 70%. The inhibition at 1000 g/ha with Solidago altissima (10 g/a active ingredient, 25 days after foliage treatment) was 79%. Further, the Rating in assay [1] (5 g/a active ingredient) is 5 (50 to 59); in assay [1] (10 g/a active ingredient), 6 (60 to 69).
